“Also recorded” adds a separate entry of the source.
What was measured:
[1] = test system: human gingival squamous carcinoma cells (OECM1); assay: Cell viability/proliferation assay (WST-1) in OECM1 cells; type: cell-based; conditions: for OECM1 viability / proliferation: 0.1, 1, 2 and 5 μg/ml, normalized to control
From the text: (§1) In specific examples, colorimetric assays can be used to assess cellular viability and proliferation of cell cultures, such as MTT, WST-1, and resazurin assays. See, e.g., Präbst et al., Methods Mol Biol. 2017:1601:1-17.
(§2) Various cell lines were exposed to PGDHC, including human gingival squamous carcinoma cells (OECM1), tongue squamous carcinoma cells (SCC4, SCC9), and healthy human gingival epithelial control cells (OBA9) in vitro.
(§3) To elucidate the effects of C16:0 and dh-C16:0 on oral squamous cell carcinoma, the ability of exogenous C16:0 and dh-C16:0 to modulate proliferation and ceramidase expression in OECM1 cells was determined. […] In contrast, no effect of C16:0 on ASAH1 and ACER2 mRNA expressions.
(§4) LCL521 is a dose-dependent acid ceramidase inhibitor. Comparison of the concentration-dependent effects of an acid ceramidase inhibitor, LCL521 (MedChemExpress®), and the bacterial-isolated a15:0-15:0PE phospholipid on the viability of healthy human epithelial, OBA9, and oral squamous cancer cell lines, OECM1 and SCC9, in vitro was evaluated. […] (FIG. 15A). […] (FIG. 15B).

ASAH1 [2] = assay: ASAH1 (acid ceramidase) mRNA expression in OECM1 cells; type: cell-based, human; conditions: for expression of ASAH1 in OECM1 cells: 1 μg/ml, compared to sham control
From the text: (§5) Exemplary ceramidase genes, the expression of which can be measured to determine upregulation, include but are not limited to ASAH1, ACER2, and ACER3. A determination of ceramidase gene expression can be made according to methods available to one of skill in the art. For example, Yamada et al., J Cell Mol Med. 2023 May;27(9):1290-1295 and Kyriakou et al., Int. J. Mol. Sci. 2020, 21(5):1607 describes measuring the mRNA levels of ceramidases by RNA extraction and RT-PCR.
(§6) To test this hypothesis, it was first determined whether artificially elevated intracellular concentration of ceramide species affect the expression of acid/ASAH1, neutral/ASAH2, and alkaline1-3/ACER1-3 ceramidases in oral squamous cell carcinoma cells using C6-ceramide. Applicant previously reported that C6-ceramide serves as a positive control for PGDHC-mediated inflammation (Kanzaki et al., Biochim Biophys Acta Mol Cell Biol Lipids. 2017 May;1862(5):452-462) and promotes the intracellular accumulation of ceramide in cancer cells. See, e.g., Zhang et al., Front Plant Sci. 2020 Feb. 26:11:145, Zhai et al., Biochem Biophys Res Commun. 2015 December;468(1-2):274-80, Wilhelm et al., Cancers (Basel). 2021 Jan. 13;13(2):270, and Chapman et al., Biochem Pharmacol. 2010 Aug. 1;80(3):308-15.
(§7) Next, the effect of PGDHC on ceramidase gene expression was determined. OECM1 and SCC4 cells were exposed to 0.1 or 1 μg/ml of PGDHC. The mRNA levels of ceramidases were then measured following PGDHC exposure. PGDHC inhibited the expression of ASAH1 and ACER2 mRNAs in OECM1 (FIG. 8). […] See, e.g., Vijayan et al., J Adv Res. 2023 Dec. 21:S2090-1232(23)00403-4, Doan et al., Oncotarget. 2017 Nov. 7;8(68):112662-112674., Lai et al., Sci Rep. 2021 May 27;11(1):11221, Liu et al., Cancer Sci. 2020 July;111(7):2259-2274., and Liu et al., Front Genet. 2023 Mar. 1:14:1148437.
as §3
(§8) We evaluated the effect of a15:0-i15:0 phosphoethanolamine phospholipid (FIG. 1D), isolated from the gut bacteria Akkermansia muciniphila on OSCC cells.

ACER3 = ACER3 mRNA expression in OECM1 cells; type: cell-based, human; conditions: 1 μg/ml, compared to sham control
From the text: as §5
as §6, with “13;13(2):270, and Chapman et al., Biochem Pharmacol. 2010 Aug. 1;80(3):308-15.” left out
To elucidate the effects of C16:0 and dh-C16:0 on oral squamous cell carcinoma, the ability of exogenous C16:0 and dh-C16:0 to modulate proliferation and ceramidase expression in OECM1 cells was determined. […]

ACER2 = ACER2 mRNA expression in OECM1 cells; type: cell-based, human; conditions: 1 μg/ml, compared to sham control
From the text: as §5, §6, §7, §3

[3] = test system: healthy human gingival epithelial control cells (OBA9); assay: Cell viability/proliferation assay (WST-1) in healthy OBA9 cells; type: cell-based
From the text: as §1, §2, §4

[4] = test system: tongue squamous carcinoma cells (SCC9); assay: Cell viability/proliferation assay (WST-1) in SCC9 cells; type: cell-based, human
From the text: as §1, §2, §4

SCC9 cells = assay: Untargeted metabolomic pathway analysis (LC/MS) in SCC9 cells; type: cell-based, human; conditions: 1 μg/ml for 6 h
From the text: The plots in FIGS. 16A and 16B display the enriched pathways identified in the analysis, with their corresponding significance levels represented on the x-axis. The significance threshold (p<0.05) is denoted by the dashed line. […] Additionally, the color of the dots represents the enrichment, which indicates the extent to which the metabolites in the pathway were clustered amongst the compounds with the most positive fold-changes (positive enrichments), the most negative fold-changes (negative enrichments), or uniformly distributed across high and low fold-change compounds (enrichment values near 0.0). […] Polar and lipid metabolites were analyzed with hydrophilic interaction chromatography (HILIC/MS) and liquid chromatography (LC/MS), respectively. Mass spectrometry analysis was completed with a mass range of 67-1500 Da with 1 scan/sec and a mass resolution of 120,000 in both positive and negative ionization mode. The MS/MS mass-spectrometry data were acquired in a data-dependent iterative fashion with a 1.3 m/z isolation window. Based upon this metabolomic analysis, phosphoglycerol dihydroceramide (PGDHC) isolated from Porphyromonas gingivalis inhibits metabolomic pathways essential for cell survival in oral squamous cell carcinoma cells (OSCC). […]
SCC9 were exposed to a15:0-i15:0PE (1 μg/ml) for 6 h in vitro. […] The significance threshold (p<0.05) is denoted by the grey dashed line. […] Additionally, the color of the dots represents the enrichment, which indicates the extent to which the metabolites in the pathway were clustered amongst the compounds with the most positive fold-changes (positive enrichments), the most negative fold-changes (negative enrichments), or uniformly distributed across high and low fold-change compounds (enrichment values near 0.0).

ASAH1 [5] = assay: ASAH1 mRNA expression in SCC9 cells; type: cell-based, human; conditions: different concentrations of a15:0-i15:0PE
From the text: as §8

acid ceramidase = assay: Acid ceramidase level by confocal microscopy in SCC9 cells; type: cell-based, human
From the text: as §8

[6] = test system: ceramide and dihydroceramide in OECM1 cells; conditions: Yamada et al. 2023; cited from earlier work
ASAH1 [7] = conditions: Yamada et al. 2023; cited from earlier work
[8] = test system: human gingival squamous carcinoma cells (OECM1); conditions: Yamada et al. 2023; cited from earlier work
[9] = at concentrations lower than 1 μg/mL

Q: What does the source list for `CCCCCCCCCCCCC/C=C/[C@@H](O)[C@H](CO)NC(=O)CCCCC` [C6-ceramide]?
A: OECM1 viability / proliferation [1]: inhibited OECM1 viability in a concentration-dependent manner; expression of ASAH1 in OECM1 cells (ASAH1 [2]): inhibited expression; expression of ACER3 in OECM1 cells (ACER3): inhibited expression; expression of ACER2 in OECM1 cells (ACER2): inhibited expression

Q: With `CCCCCCCCCCCCC/C=C/[C@@H](O)[C@H](CO)NC(=O)CCCCCCCCCCCCCCC` [C16:0, C16:0 ceramide] as the compound, how does the “expression of ASAH1 in OECM1 cells” value (ASAH1 [2]) read?
A: The value was “no effect”.

Q: What about the “expression of ACER2 in OECM1 cells” value (ACER2) of the same compound?
A: The value was “no effect”.

Q: Which “inhibition of viability of OBA9” value ([3]; 10 μM) does the source give for `CCCCCCCCCCCCCC(=O)N[C@H](COC(=O)CN(C)C)[C@H](OC(=O)CN(C)C)c1ccc([N+](=O)[O-])cc1` [LCL521, reference compound] here?
A: The value was “over 50%”.

Q: And the “inhibition of viability of OECM1” value ([1]; 10 μM)?
A: The value was 20%.

Q: What about the “inhibition of viability of SCC9” value ([4]; 10 μM) of the same compound?
A: Its value is 20%.

Q: Which results are given for `CC[C@H](C)CCCCCCCCCCC(=O)OC[C@H](COP(=O)(O)OCCN)OC(=O)CCCCCCCCCCCC(C)C` [a15:0-15:0PE, 1-(12S-methylmyristoyl)-2-(13-methylmyristoyl)-sn-glycero-3-phosphoethanolamine]?
A: healthy OBA9 cell viability ([3]; concentrations of 0.1, 1.0 and 2.0 μM (FIG. 15B)): No significant effect; amino fatty acid metabolism in SCC9 cells (SCC9 cells): inhibits; arginine and proline metabolism in SCC9 cells (SCC9 cells): inhibits; vitamin B6 metabolism in SCC9 cells (SCC9 cells): inhibits; amino fatty acid metabolism in SCC9 cells (SCC9 cells; listed as a15:0-i15:0PE): diminished accumulation; arginine and proline metabolism in SCC9 cells (SCC9 cells; listed as a15:0-i15:0PE): diminished accumulation; vitamin B6 metabolism in SCC9 cells (SCC9 cells; listed as a15:0-i15:0PE): diminished accumulation; expression patterns of ASAH1 mRNA in SCC9 (ASAH1 [5]): dose-dependent decrease in expression; levels of acid ceramidase in SCC9 cells (confocal, corrected total cell fluorescence) (acid ceramidase): decreased expression; viability of OECM1 cells [1, 9]: significantly inhibited; expression patterns of ASAH1 mRNA in OECM1 (ASAH1 [2]; different concentrations of a15:0-i15:0PE): dose-dependent decrease in expression; viability of SCC9 cells [4, 9]: significantly inhibited

Q: With `CCCCCCCCCCCCCCCC(=O)N[C@@H](CO)[C@H](O)CCCCCCCCCCCCCCC` [dh-C16:0, Dihydroceramide C16:0] as the compound, how does the “OECM1 viability / proliferation” value [1] read?
A: The value was “significantly inhibited OECM1 cells proliferation in a concentration-dependent manner”.

Q: And the “expression of ASAH1 in OECM1 cells” value (ASAH1 [2])?
A: Its value is “dramatically inhibits”.

Q: And the “expression of ACER3 in OECM1 cells” value (ACER3)?
A: Its value is “dramatically inhibits”.

Q: And the “expression of ACER2 in OECM1 cells” value (ACER2)?
A: Its value is “dramatically inhibits”.

Q: Which results are given for “phosphoethanolamine dihydroceramide [PEDHC]”?
A: accumulation of antiproliferative ceramides in OECM1 cells [6]: elevated accumulation; ASAH1 (acid ceramidase) expression in OECM1 cells (ASAH1 [7]): inhibition; also recorded: downregulation; proliferation of OECM1 cells [8]: inhibited the proliferation
